tested on: not listed separately; assay: Stability in Tris-HCl buffer incubated for 24 hrs; format: physicochemical; details: not given

Compound	Stability
CC(C(C(=O)O)C(=O)O)[C@@H](O)[C@@H](O)[C@@H](O)CCC(=O)O (some centres not stated)	Stable
O=C(O)C(C[C@H]1OC(O)[C@H](O)[C@@H]1O)C(=O)O (some centres not stated)	Stable
CC(C(C(=O)O)C(=O)O)[C@@H](O)[C@@H](O)[C@@H](O)CCP(=O)(O)O (some centres not stated)	Stable
O=S(=O)(O)OC[C@H]1OC(O)[C@H](O)[C@@H]1O (some centres not stated)	Stable
O=S(=O)(O)CC[C@H]1OC(O)[C@H](O)[C@@H]1O (some centres not stated)	Stable
O=P(O)(O)CC[C@H]1OC(O)[C@H](O)[C@@H]1O (some centres not stated)	Stable

target: T1, ribose-5-phosphate isomerase (Spinacia oleracea, UniProt Q8RU73); assay: Competitive inhibition of Spinacia oleracea RPIA assessed as inhibition constant using D-ribose-5-phosphate as substrate by Cheng-Prusoff equation analysis; details: not given
T1 sequence (Q8RU73 whole entry): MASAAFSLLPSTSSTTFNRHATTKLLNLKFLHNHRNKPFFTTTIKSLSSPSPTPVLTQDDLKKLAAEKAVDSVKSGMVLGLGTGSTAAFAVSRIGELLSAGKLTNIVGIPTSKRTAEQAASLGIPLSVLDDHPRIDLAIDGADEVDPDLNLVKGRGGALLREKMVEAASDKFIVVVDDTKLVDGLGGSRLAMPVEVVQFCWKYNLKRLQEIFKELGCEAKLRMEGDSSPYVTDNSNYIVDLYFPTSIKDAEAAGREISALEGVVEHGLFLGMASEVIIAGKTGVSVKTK

Compound	Ki [µM]
CC(C(C(=O)O)C(=O)O)[C@@H](O)[C@@H](O)[C@@H](O)CCC(=O)O (some centres not stated)	> 750
O=C(O)C(C[C@H]1OC(O)[C@H](O)[C@@H]1O)C(=O)O (some centres not stated)	450
CC(C(C(=O)O)C(=O)O)[C@@H](O)[C@@H](O)[C@@H](O)CCP(=O)(O)O (some centres not stated)	> 750
O=S(=O)(O)OC[C@H]1OC(O)[C@H](O)[C@@H]1O (some centres not stated)	180
O=S(=O)(O)CC[C@H]1OC(O)[C@H](O)[C@@H]1O (some centres not stated)	290
O=C(O)[C@@H](O)[C@@H](O)[C@@H](O)COP(=O)(O)O (single isomer, unassigned)	38

tested on: not listed separately; assay: Stability in Tris-HCl buffer spiked with calf serum incubated for 24 hrs; format: physicochemical, cell-free; details: cattle

Compound	Stability
CC(C(C(=O)O)C(=O)O)[C@@H](O)[C@@H](O)[C@@H](O)CCC(=O)O (some centres not stated)	Stable
O=C(O)C(C[C@H]1OC(O)[C@H](O)[C@@H]1O)C(=O)O (some centres not stated)	Stable
O=P(O)(O)OC[C@H]1O[C@@H](O)[C@H](O)[C@@H]1O	Unstable
CC(C(C(=O)O)C(=O)O)[C@@H](O)[C@@H](O)[C@@H](O)CCP(=O)(O)O (some centres not stated)	Stable
O=S(=O)(O)OC[C@H]1OC(O)[C@H](O)[C@@H]1O (some centres not stated)	Unstable
O=S(=O)(O)CC[C@H]1OC(O)[C@H](O)[C@@H]1O (some centres not stated)	Stable
O=P(O)(O)CC[C@H]1OC(O)[C@H](O)[C@@H]1O (some centres not stated)	Stable
O=C(O)[C@@H](O)[C@@H](O)[C@@H](O)COP(=O)(O)O (single isomer, unassigned)	Unstable

target: T2, Ribose-5-phosphate isomerase B (Mycobacterium tuberculosis, UniProt P9WKD7); assay: Competitive inhibition of Mycobacterium tuberculosis RPIB using D-ribose-5-phosphate as substrate; details: not given
T2 sequence (P9WKD7 whole entry): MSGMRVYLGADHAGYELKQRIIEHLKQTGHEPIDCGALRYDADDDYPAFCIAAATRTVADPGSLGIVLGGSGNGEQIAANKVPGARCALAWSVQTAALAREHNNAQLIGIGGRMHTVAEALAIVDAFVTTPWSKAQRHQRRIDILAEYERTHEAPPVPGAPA

Compound	IC50 [µM]
CC(C(C(=O)O)C(=O)O)[C@@H](O)[C@@H](O)[C@@H](O)CCC(=O)O (some centres not stated)	470
O=C(O)C(C[C@H]1OC(O)[C@H](O)[C@@H]1O)C(=O)O (some centres not stated)	810
CC(C(C(=O)O)C(=O)O)[C@@H](O)[C@@H](O)[C@@H](O)CCP(=O)(O)O (some centres not stated)	200
O=S(=O)(O)OC[C@H]1OC(O)[C@H](O)[C@@H]1O (some centres not stated)	120
O=S(=O)(O)CC[C@H]1OC(O)[C@H](O)[C@@H]1O (some centres not stated)	240
O=P(O)(O)CC[C@H]1OC(O)[C@H](O)[C@@H]1O (some centres not stated)	> 3000
O=C(O)[C@@H](O)[C@@H](O)[C@@H](O)COP(=O)(O)O (single isomer, unassigned)	21

target: T3, Ribose-5-phosphate isomerase B (Escherichia coli (strain K12), UniProt P37351); assay: Competitive inhibition of Escherichia coli RPIB using D-ribose-5-phosphate as substrate; details: not given
T3 sequence (P37351 whole entry): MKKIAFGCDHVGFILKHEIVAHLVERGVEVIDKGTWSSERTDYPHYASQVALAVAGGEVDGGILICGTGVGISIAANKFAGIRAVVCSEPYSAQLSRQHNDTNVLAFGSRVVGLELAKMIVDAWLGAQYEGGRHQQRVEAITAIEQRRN

Compound	IC50 [µM]
CC(C(C(=O)O)C(=O)O)[C@@H](O)[C@@H](O)[C@@H](O)CCC(=O)O (some centres not stated)	> 1500
O=C(O)C(C[C@H]1OC(O)[C@H](O)[C@@H]1O)C(=O)O (some centres not stated)	1340
CC(C(C(=O)O)C(=O)O)[C@@H](O)[C@@H](O)[C@@H](O)CCP(=O)(O)O (some centres not stated)	1360
O=S(=O)(O)OC[C@H]1OC(O)[C@H](O)[C@@H]1O (some centres not stated)	160
O=S(=O)(O)CC[C@H]1OC(O)[C@H](O)[C@@H]1O (some centres not stated)	480
O=P(O)(O)CC[C@H]1OC(O)[C@H](O)[C@@H]1O (some centres not stated)	2410
O=C(O)[C@@H](O)[C@@H](O)[C@@H](O)COP(=O)(O)O (single isomer, unassigned)	1400

tested on: not listed separately; assay: Stability in Tris-HCl buffer spiked with alkaline phosphatase incubated for 24 hrs; format: physicochemical; details: not given

Compound	Stability
CC(C(C(=O)O)C(=O)O)[C@@H](O)[C@@H](O)[C@@H](O)CCC(=O)O (some centres not stated)	Stable
O=C(O)C(C[C@H]1OC(O)[C@H](O)[C@@H]1O)C(=O)O (some centres not stated)	Stable
O=P(O)(O)OC[C@H]1O[C@@H](O)[C@H](O)[C@@H]1O	Unstable
CC(C(C(=O)O)C(=O)O)[C@@H](O)[C@@H](O)[C@@H](O)CCP(=O)(O)O (some centres not stated)	Stable
O=S(=O)(O)OC[C@H]1OC(O)[C@H](O)[C@@H]1O (some centres not stated)	Stable
O=S(=O)(O)CC[C@H]1OC(O)[C@H](O)[C@@H]1O (some centres not stated)	Stable
O=P(O)(O)CC[C@H]1OC(O)[C@H](O)[C@@H]1O (some centres not stated)	Stable
O=C(O)[C@@H](O)[C@@H](O)[C@@H](O)COP(=O)(O)O (single isomer, unassigned)	Unstable

target: T3, Ribose-5-phosphate isomerase B; assay: Competitive inhibition of Escherichia coli RPIB using D-ribose-5-phosphate as substrate by spectrophotometric analysis; details: not given

Compound	IC50 [µM]
O=C(O)[C@@H](O)[C@@H](O)[C@@H](O)COP(=O)(O)O (single isomer, unassigned)	1310

tested on: not listed separately; assay: Stability in Tris-HCl buffer assessed as compound hydrolysis incubated for 24 hrs; format: physicochemical; details: read-out: Drug degradation

Compound	degraded at 24 h [%]
O=P(O)(O)OC[C@H]1O[C@@H](O)[C@H](O)[C@@H]1O	10
O=C(O)[C@@H](O)[C@@H](O)[C@@H](O)COP(=O)(O)O (single isomer, unassigned)	20

target: T1, ribose-5-phosphate isomerase; assay: Competitive inhibition of Spinacia oleracea RPIA using D-ribose-5-phosphate as substrate; details: not given

Compound	IC50 [µM]
CC(C(C(=O)O)C(=O)O)[C@@H](O)[C@@H](O)[C@@H](O)CCC(=O)O (some centres not stated)	> 1500
O=C(O)C(C[C@H]1OC(O)[C@H](O)[C@@H]1O)C(=O)O (some centres not stated)	980
CC(C(C(=O)O)C(=O)O)[C@@H](O)[C@@H](O)[C@@H](O)CCP(=O)(O)O (some centres not stated)	> 1500
O=S(=O)(O)OC[C@H]1OC(O)[C@H](O)[C@@H]1O (some centres not stated)	320
O=S(=O)(O)CC[C@H]1OC(O)[C@H](O)[C@@H]1O (some centres not stated)	620
O=P(O)(O)CC[C@H]1OC(O)[C@H](O)[C@@H]1O (some centres not stated)	> 3000
O=C(O)[C@@H](O)[C@@H](O)[C@@H](O)COP(=O)(O)O (single isomer, unassigned)	95

target: T2, Ribose-5-phosphate isomerase B; assay: Competitive inhibition of Mycobacterium tuberculosis RPIB using D-ribose-5-phosphate as substrate assessed as inhibition constant by spectrophotometric analysis; details: not given

Compound	Ki [µM]
O=C(O)[C@@H](O)[C@@H](O)[C@@H](O)COP(=O)(O)O (single isomer, unassigned)	9

target: T2, Ribose-5-phosphate isomerase B; assay: Competitive inhibition of Mycobacterium tuberculosis RPIB assessed as inhibition constant using D-ribose-5-phosphate as substrate by Cheng-Prusoff equation analysis; details: not given

Compound	Ki [µM]
CC(C(C(=O)O)C(=O)O)[C@@H](O)[C@@H](O)[C@@H](O)CCC(=O)O (some centres not stated)	290
O=C(O)C(C[C@H]1OC(O)[C@H](O)[C@@H]1O)C(=O)O (some centres not stated)	340
CC(C(C(=O)O)C(=O)O)[C@@H](O)[C@@H](O)[C@@H](O)CCP(=O)(O)O (some centres not stated)	80
O=S(=O)(O)OC[C@H]1OC(O)[C@H](O)[C@@H]1O (some centres not stated)	40
O=S(=O)(O)CC[C@H]1OC(O)[C@H](O)[C@@H]1O (some centres not stated)	110

target: T2, Ribose-5-phosphate isomerase B; assay: Competitive inhibition of Mycobacterium tuberculosis RPIB using D-ribose-5-phosphate as substrate by spectrophotometric analysis; details: not given

Compound	IC50 [µM]
O=C(O)[C@@H](O)[C@@H](O)[C@@H](O)COP(=O)(O)O (single isomer, unassigned)	31

target: T3, Ribose-5-phosphate isomerase B; assay: Competitive inhibition of Escherichia coli RPIB assessed as inhibition constant using D-ribose-5-phosphate as substrate by Cheng-Prusoff equation analysis; details: not given

Compound	Ki [µM]
O=C(O)C(C[C@H]1OC(O)[C@H](O)[C@@H]1O)C(=O)O (some centres not stated)	670
O=S(=O)(O)OC[C@H]1OC(O)[C@H](O)[C@@H]1O (some centres not stated)	90
O=S(=O)(O)CC[C@H]1OC(O)[C@H](O)[C@@H]1O (some centres not stated)	170

From ChEMBL document CHEMBL5579804, “Synthesis and kinetic evaluation of phosphomimetic inhibitors targeting type B ribose-5-phosphate isomerase from Mycobacterium tuberculosis” (Bioorg Med Chem Lett, 2024)
